# Assays:
# TNFα = test: Measurement of LPS Induced-TNFα in THP-1 Cells; assay type: cell-based, human; conditions: compound 10 uM, 5 ng/mL LPS
# Angiogenesis in CAM = test: Neovascularization on the CAM (Inhibition of Angiogenesis in CAM); assay type: in vivo, chicken; conditions: 30 ug
# Description: In vivo neovascularization was examined by the method previously described by Auerbach et al. (J. Dev. Biol. 41:391-394 (1974)). Ten-day old chicken embryos were purchased from Spafas, Inc. (Preston, Conn.) and were incubated at 37° C. with 55% relative humidity. In the dark, with the aid of a candling lamp, a small hole was punctured in the shell concealing the air sac with a hypodermic needle. A second hole was punctured in the shell on the broadside of the egg directly over an […] portion of the embryonic membrane, as observed during candling. An artificial air sac was created beneath the second hole by applying gentle vacuum to the first hole using a small rubber squeeze bulb. The vacuum caused the chorioallantoic membrane (CAM) to separate from the shell. A window, approximately 1.0 cm^2, was cut in the shell over the dropped CAM with the use of a small crafts grinding wheel (Dremel, Division of Emerson Electric Company Racine, Wis.). The window allowed direct access to the underlying CAM. A pro-angiogenic agent was added to induce new blood vessel branches on the CAM of 10-day old embryos. […] Louis, Mo.) in a solution (95% ethanol and water). The disks were subsequently air dried under sterile conditions. The disks were then suspended in PBS (Phosphate Buffered Saline) and placed on growing CAMs. […] For inducing angiogenesis, sterile filter disks were saturated with bFGF (1 μg/ml) (Life Technologies, Gaithersburg, Md.) or other pro-angiogenesis factors and control disks were saturated with PBS without Calcium and Magnesium. Control disks were saturated with PBS without Calcium and Magnesium. Using sterile forceps one filter/CAM was placed from the window. The window was sealed with Highland brand transparent tape. After 24-48 hr, 10-25 ul of test agent was injected intravenously or added topically into the CAM membrane. Eight-Ten eggs/treatment group were used. CAM tissue directly beneath filter disk was harvested from embryos treated 48 hours prior with compound or control. Tissues were washed three times with PBS. Sections were placed in a 35-mm petri dish (Nalge Nunc, Rochester, N.Y.) and examined under a SV6 stereomicroscope (Karl Zeiss, Thornwood, N.Y.) at 50× magnification. […] Digital images of CAM sections from Petri dish were collected using a 3-CCD color video camera system (Toshiba America, New York, N.Y.). These images were analyzed using Image-Pro Plus software (Media Cybernetics, Silver Spring, Md.). The number of branch points in blood vessels within the circular region superimposed to the area of a filter disk was counted for each section. […] Tissues were washed three times with PBS. Sections were placed in a 35-mm Petri dish (Nalge Nunc; Rochester, N.Y.) and were examined under a SV6 stereomicroscope (Karl Zeiss; Thornwood, N.Y.) at 50× magnification. Digital images of CAM sections adjacent to filters were collected using a 3-CCD color video camera system (Toshiba America; New York, N.Y.) and analyzed with the Image-Pro Plus software (Media Cybernetics; Silver Spring, Md.). The number of vessel branch points contained in a circular region equal to the area of a filter disk was counted for each section. Percent inhibition data are expressed as the quotient of the experimental value minus the negative control value divided by the difference between the positive control value and the negative control value. One image was counted in each CAM preparation, and findings from eight CAM preparations were analyzed for each treatment condition. In addition, each experiment was performed three times. The resulting angiogenesis index is the mean ±SEM (Standard Error of Measurement) of new branch points in each set of treatment. Statistical analysis of blood vessel branching patterns are performed by 1-way analysis of variance (ANOVA) comparing experimental with corresponding control groups.
# [1] = In vitro stability of OT-551 in human plasma; assay type: in vitro ADME
# Description: The active metabolite of OT-551 (Cyclopropanecarboxylic acid 1-hydroxy-2,2,6,6-tetramethyl-piperidin-4-yl ester) is TP-H. The objective of this analysis was to determine the in vitro half-life of OT-551 in rat, rabbit, dog, and human plasma under standardized incubation conditions.
# OT-551 was incubated with pooled rat, rabbit, dog, and human plasma for various times under standardized incubation conditions. Pre-labeled tubes containing pooled plasma from rats, rabbits, dogs, and humans were pre-incubated in a shaking 37° C. water bath. A OT-551 solution was added to the tubes at a final concentration of 1000 ng/mL. Time zero samples (n=5) were immediately removed and transferred into tubes containing a stabilizer solution (DTPA, acetylcysteine and ascorbic acid), the LC/MS/MS assay internal standard and methanol. […] The tubes were vortexed, placed on ice, followed by centrifugation. One hundred-μL aliquots of the supernatant were transferred into HPLC sample vials. Additional tubes (n=5 at each time point) were incubated for 5, 10, 20, 30, 60, 120, and 240 minutes at 37° C. and thereafter processed. The amount of OT-551 and TP-H in each incubated sample was quantified using validated LC/MS/MS assays.
smiles,measurement,setting,value
"CC1(C)CC(OC(=O)C2CC2)CC(C)(C)N1O.Cl [OT-551, 1-hydroxy-4-cyclopropanecarbonyloxy-2,2,6,6-tetramethylpiperidine hydrochloride]",inhibition at 10 µM,"TNFα; Homo sapiens, THP-1, read-out: Mean Percent Inhibition of TNF-alpha using 5 ng/mL LPS",68 ± 6%
same,"Inhibition of Angiogenesis in CAM, % Inhibition","Angiogenesis in CAM; listed as OT-551 HCl, hydrochloride",74 ± 4%
same,inhibition in vivo at 0.03 mg,Angiogenesis in CAM; Gallus gallus,75.2 ± 9.7%
same,Concentrations (ng/mL) of OT-551 in Human Plasma,[1]; incubation time 0 min,775.47 ± 22.50 ng/mL
same,Concentrations (ng/mL) of OT-551 in Human Plasma,[1]; incubation time 5 min,593.43 ± 7.55 ng/mL
same,Concentrations (ng/mL) of OT-551 in Human Plasma,[1]; incubation time 10 min,503.18 ± 20.90 ng/mL
same,Concentrations (ng/mL) of OT-551 in Human Plasma,[1]; incubation time 20 min,394.69 ± 6.72 ng/mL
same,Concentrations (ng/mL) of OT-551 in Human Plasma,[1]; incubation time 30 min,316.37 ± 7.67 ng/mL
same,Concentrations (ng/mL) of OT-551 in Human Plasma,[1]; incubation time 60 min,162.41 ± 9.77 ng/mL
same,Concentrations (ng/mL) of OT-551 in Human Plasma,[1]; incubation time 120 min,32.22 ± 2.63 ng/mL
same,Concentrations (ng/mL) of OT-551 in Human Plasma,[1]; incubation time 240 min,0.00 ± 0.00 ng/mL
CC1(C)CC(O)CC(C)(C)N1O [TEMPOL-H],Mean Percent Inhibition of TNF-alpha using 5 ng/mL LPS,TNFα,74 ± 8%
same,"Inhibition of Angiogenesis in CAM, % Inhibition",Angiogenesis in CAM,43 ± 10%
same,Concentrations (ng/mL) of TP-H in Human Plasma,[1]; OT-551 incubation time 0 min,48.76 ± 2.84 ng/mL
same,Concentrations (ng/mL) of TP-H in Human Plasma,[1]; OT-551 incubation time 5 min,186.71 ± 4.58 ng/mL
same,Concentrations (ng/mL) of TP-H in Human Plasma,[1]; OT-551 incubation time 10 min,241.99 ± 8.05 ng/mL
same,Concentrations (ng/mL) of TP-H in Human Plasma,[1]; OT-551 incubation time 20 min,310.10 ± 8.54 ng/mL
same,Concentrations (ng/mL) of TP-H in Human Plasma,[1]; OT-551 incubation time 30 min,365.53 ± 14.44 ng/mL
same,Concentrations (ng/mL) of TP-H in Human Plasma,[1]; OT-551 incubation time 60 min,449.85 ± 9.73 ng/mL
same,Concentrations (ng/mL) of TP-H in Human Plasma,[1]; OT-551 incubation time 120 min,519.12 ± 19.52 ng/mL
same,Concentrations (ng/mL) of TP-H in Human Plasma,[1]; OT-551 incubation time 240 min,501.39 ± 11.33 ng/mL
